Entries after “also recorded” stand apart in the source; their conditions may differ. Like-named read-outs stand apart in the source and are kept apart here.
Legend:
[1] = system: MDA-MB-231 TNBC cell line; test: MTT survival assay MDA-MB-231; type: cell-based; settings: Table S2; for IC50: Homo sapiens, MDA-MB-231, read-out: MTT MDA-MB-231 IC50
BT-20 TNBC cell line = test: MTT survival assay BT-20; type: cell-based; settings: Homo sapiens, BT-20
[2] = system: non-cancerous breast epithelial cell line MCF10a; test: MTT survival assay MCF10a; type: cell-based; settings: for IC50: Homo sapiens, MCF-10A
HCC1395 TNBC cell line = test: MTT survival assay HCC1395; type: cell-based; settings: Homo sapiens, HCC1395; Table S2; read-out: MTT HCC-1395 IC50
HCC1395 cells = test: Cytotoxicity by Renilla luciferase under CMV promoter
[3] = as above; settings: human
[4] = system: β-catenin-dependent Wnt-pathway; test: TopFlash luciferase reporter assay, CHIR99021-stimulated, HCC1395; type: cell-based; settings: Homo sapiens, HCC1395, HCC1395, stimulation with CHIR99021 (GSK3β inhibitor); for Emax: read-out: HCC1395 TopFlash Efficacy; for IC50: read-out: HCC1395 TopFlash IC50
[5] = system: MDA-MB-468 TNBC cell line; test: MTT survival assay MDA-MB-468; type: cell-based; settings: Homo sapiens, MDA-MB-468; Table S2
HCC1806 TNBC cell line = test: MTT survival assay HCC1806; type: cell-based; settings: Homo sapiens, HCC1806
[6] = system: β-catenin-dependent Wnt-pathway; test: TopFlash luciferase reporter assay, Wnt3a-stimulated, HCC1395; type: cell-based; settings: Homo sapiens, stimulation with Wnt3a
Text: The advantage of our platform lies in its ability to discriminate between inhibitors of the β-catenin-dependent Wnt signaling acting at upstream vs. downstream levels of the pathway, by stimulating the pathway at the different levels either with Wnt3a or with a GSK3β inhibitor, like CHIR99021 ([Shaw et al., 2019b]). Both stimulations abolish formation of the destruction complex, a multiprotein complex consisting of Axin, adenomatous polyposis coli (APC), glycogen synthase kinase three beta (GSK3β), and casein kinase one alpha (CK1α). Upon inactivation of the complex, β-catenin accumulates in the cytoplasm and translocates into the nucleus where it interacts with transcription factors. These downstream events are quantified by a Luciferase transcription-based readout assay (TopFlash assay).

[7] = system: panel of luciferase reporters with basal activities in HCC1395 cells; test: Panel of other luciferase transcriptional reporters in HCC1395; type: cell-based; settings: HCC1395, 5 µM
Experimental: Compound 5d (IC50 = 0.6 µM, Table 2) was used as a representative to analyze the selectivity of the chemotype towards the Wnt-pathway, by profiling it against a panel of different transcriptional reporters with significant basal activities in HCC1395 cells (Figure 5). […] We thus conclude that the anti-proliferative effect of the compound is related exclusively to the suppressed Wnt signaling.

[8] = Table S2, read-out: MTT BT-20 IC50
[9] = Table S2, read-out: MTT MCF10 IC50
[10] = Table S2, read-out: MTT HCC1806 IC50

SMILES | IC50 [1] [µM] | IC50 (BT-20 TNBC cell line; [8]) [µM] | IC50 [2, 9] [µM] | IC50 (HCC1395 TNBC cell line) [nM] | Emax [4] [%] | IC50 [4] [µM] | IC50 [5] [nM] | IC50 (HCC1806 TNBC cell line; [10]) [µM] | further results
c1ccc(CNc2ncnc3sccc23)cc1 [Compound 4a, N-benzylthieno[2,3-d]pyrimidin-4-amine] | 19.2 | 16.3 | > 10 | 2520 | 72 | 8.47 | 2130 | 2.33 | MTT MDA-MB-231 plateau [1]: 100; MTT MCF10 Comments ([2]; Table S2): Inactive; Cytotoxicity (Renilla) in words (HCC1395 cells; HCC1395): not toxic; also recorded: no cytotoxic activity; GSK HCC1395 Renilla Comments (HCC1395 cells; Table S2): Non-toxic; IC50 [3]: > 50 µM; IC50 [6]: 8.31 µM
CC(Nc1ncnc2sccc12)c1ccc(Cl)cc1 (centres unmarked) [Compound 5d, N-(1-(4-chlorophenyl)ethyl)thieno[2,3-d]pyrimidin-4-amine] | > 10 | 6.89 | 6.48 | 390 | 55.4 ± 24.3 | 0.6 ± 0.33 | 1670 | 9.12 | inhibition of other signaling pathway reporters [7]: none other signaling pathways are affected; also recorded: no inhibition; MTT MDA-MB-231 Comments [1]: Inactive; IC50 (BT-20 TNBC cell line; Figure 3B heatmap, no activity up to maximal tested concentration, read-out: IC50, μM (BT20)): > 50 µM; IC50 ([2]; Figure 3B heatmap, read-out: IC50, μM (MCF10)): > 10 µM; HCC1395 Cytotoxicity Efficacy (HCC1395 cells; human): 100 ± 0%; IC50 ([3]; HCC1395 Cytotoxicity IC50): 24 ± 4.98 µM; IC50 (HCC1806 TNBC cell line; Figure 3B heatmap, read-out: IC50, μM (HCC1806)): > 50 µM

Source: publication PMC9649909, “Wnt-pathway inhibitors with selective activity against triple-negative breast cancer: From thienopyrimidine to quinazoline inhibitors” (Frontiers in Pharmacology, 2022)
